In data set [1] the target is T1, VCAM-1 (Homo sapiens, UniProt P19320).
T1 sequence (P19320 25-739): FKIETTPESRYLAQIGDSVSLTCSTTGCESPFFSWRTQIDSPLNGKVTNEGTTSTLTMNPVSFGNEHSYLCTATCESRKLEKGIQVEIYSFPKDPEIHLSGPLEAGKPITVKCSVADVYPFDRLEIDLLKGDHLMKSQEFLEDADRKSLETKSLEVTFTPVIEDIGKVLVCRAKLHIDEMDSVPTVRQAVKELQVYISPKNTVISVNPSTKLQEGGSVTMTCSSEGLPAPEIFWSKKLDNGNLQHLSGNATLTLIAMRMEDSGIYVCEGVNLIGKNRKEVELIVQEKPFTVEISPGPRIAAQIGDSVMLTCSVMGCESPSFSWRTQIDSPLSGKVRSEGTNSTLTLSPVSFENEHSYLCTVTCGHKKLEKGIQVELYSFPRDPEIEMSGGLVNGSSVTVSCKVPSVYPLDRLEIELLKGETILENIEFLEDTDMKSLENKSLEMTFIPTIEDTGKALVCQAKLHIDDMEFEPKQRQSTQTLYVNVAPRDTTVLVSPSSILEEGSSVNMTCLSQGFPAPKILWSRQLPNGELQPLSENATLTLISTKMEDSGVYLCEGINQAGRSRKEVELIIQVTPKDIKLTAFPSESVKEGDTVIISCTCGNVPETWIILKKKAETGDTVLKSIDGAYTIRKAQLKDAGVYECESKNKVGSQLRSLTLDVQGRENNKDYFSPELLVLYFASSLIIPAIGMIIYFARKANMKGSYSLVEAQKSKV
Experimental: Cell-free translations are carried out in the coupled TNT reticulocyte lysate system (Promega) using bacteriophage T7 polymerase according to the suppliers recommendations in a final volume of 25 μl and in the presence of [^35S]-methionine (Redivue, 10 mCi/ml, Amersham). To study cotranslational translocation across the ER membrane dog pancreatic microsomes (Promega) are present during translation reactions at concentrations between 1 to 2.5 μl per 25 μl reaction mixture. After translation/translocation, 2.5 μl of the reaction mixture are denatured in SDS loading buffer (12.5 mM Tris-HCl, pH 6.8, 80 μM EDTA, 26 mM DTT, 1% SDS, 100 g/ml bromphenol blue, 0.01% NaN3) for 5 minutes at 95° and subjected to SDS-PAGE (4-20% gradient or 15% Excel gels, Pharmacia). Gels are analyzed by autoradiography and quantitated using an Instant Phosphoimager (Packard). […]
To investigate the possibility that the candidate compound is interfering at this early stage of protein expression the effect of the drug on the process of cotranslational translocation in a cell-free assay system is analysed. […]

In data set [2] the target is T1, VCAM-1. The data set is described as follows: Transient expression of VCAM-1 in HEK293 cells, Western blot / immunoblot. Type of data set: cell-based. The arrangement: expressed in transfected cells; host or cells: HEK293. As to the method: The E-Selectin and ICAM-1 expression vectors pCDM8-E-selectin and pCDM8-ICAM-1 allowing transient expression in mammalian cells and cell-free translation are obtained from R&D Systems. VCAM-1 cDNA is obtained by reverse transcription of total RNA from TNF-α stimulated primary human umbilical vein endothelial cells (HUVEC) as follows. After extraction of total RNA with Trizol (GibcoBRL) according to the suppliers recommendations, reverse transcription (RT) PCR on approximately 3 μg total HUVEC RNA is performed using the Advantage High Fidelity PCR kit (CLONTECH) under standard conditions with N- and C-terminal VCAM-1-specific sense and antisense oligonucleotide primers, respectively. Primers are tailed, introducing a Kpnl restriction site 5′ of the Kozak sequence and a Xhol site 3′ of the stop codon. Placental SEAP is amplified accordingly by PCR using plasmid pBC 12/PLAP489 (Berger et al., 1988) as a template and similar tailed SEAP-specific sense and antisense oligonuclotide primers. The SEAP and VCAM-1 cDNAs are isolated and cloned into the pCR2.1 vector (TA cloning kit, Invitrogen). […] Approximately equal molar quantities of each PCR product A and B are phosphorylated and ligated. […]
Protein expression in cells is analyzed by Western blot and subsequent immunoblot analysis. […]
A general note: In western blotting, separated proteins are transferred to a membrane and probed.

In data set [3] the target is T2, E-Selectin mutant molecule with SP from VCAM-1 (Homo sapiens, UniProt P16581).
T2 construct: VCAM-1 signal peptide (SP; VCAM1, P19320), replacing E-Selectin's own SP (N); expressed in transfected cells; host or cells: HEK293 (transient); also translated cell-free in reticulocyte lysate with microsomes
Nature of the data set: Chimeric fusion construct sensitivity (cell-free translation/translocation and transfected HEK293 cells). Type of data set: cell-based. The settings on record: cell-free translation/translocation assay and transiently transfected HEK293 cells. As to the method:
(§1) The E-Selectin and ICAM-1 expression vectors pCDM8-E-selectin and pCDM8-ICAM-1 allowing transient expression in mammalian cells and cell-free translation are obtained from R&D Systems. VCAM-1 cDNA is obtained by reverse transcription of total RNA from TNF-α stimulated primary human umbilical vein endothelial cells (HUVEC) as follows. After extraction of total RNA with Trizol (GibcoBRL) according to the suppliers recommendations, reverse transcription (RT) PCR on approximately 3 μg total HUVEC RNA is performed using the Advantage High Fidelity PCR kit (CLONTECH) under standard conditions with N- and C-terminal VCAM-1-specific sense and antisense oligonucleotide primers, respectively. Primers are tailed, introducing a Kpnl restriction site 5′ of the Kozak sequence and a Xhol site 3′ of the stop codon. Placental SEAP is amplified accordingly by PCR using plasmid pBC 12/PLAP489 (Berger et al., 1988) as a template and similar tailed SEAP-specific sense and antisense oligonuclotide primers. The SEAP and VCAM-1 cDNAs are isolated and cloned into the pCR2.1 vector (TA cloning kit, Invitrogen). All sequences are confirmed by sequencing and subsequently subcloned into the mammalian expression vector pcDNA3.1 (+) (Invitrogen) as Kpnl Xhol fragments for transient expression under control of the constitutive immediate-early CMV promoter and for cell-free translation from the bacteriophage T7 promoter. To generate SP-gene fusion constructs the recombinant PCR-ligation-PCR mutagenesis method is used (Ali and Steinkasserer, 1995). Briefly, in a primary PCR reaction the two fusion gene fragments are independently amplified using appropriate specific primers for the SPs (PCR product A) and the mature sequences (PCR product B), respectively. Approximately equal molar quantities of each PCR product A and B are phosphorylated and ligated. Finally, out of the possible ligation combinations, the desired fusion gene construct is specifically amplified from an aliquot of the ligation reaction by a secondary PCR using the 5′ sense primer of the SP and the 3′ antisense primer of the mature sequence. […]

For data set [4], the target named is T3, VCAM-1 mutant molecule containing the SP from E-Selectin (Homo sapiens, UniProt P19320).
T3 construct: E-Selectin signal peptide (SP; SELE, P16581), replacing VCAM-1's own SP (N); expressed in transfected cells; host or cells: HEK293 (transient); also translated cell-free in reticulocyte lysate with microsomes
The description is as above. Conditions: cell-free translation/translocation assay and transiently transfected HEK293 cells. The data set is classed as cell-based. As to the method: as §1

The test system of data set [5] is VCAMSP15+4/E-Sel. The data set is described as above. Type of data set: cell-based. The settings on record: 15 aa of the SP plus 4 aa of the adjacent mature domain of VCAM-1. As to the method:
as §1

SMILES strings stand for the structures. A value given as a limit tells only on which side of the number the result lay.

In the case of `CCCCC(C)CC1NC(=O)C(Cc2cn(OC)c3ccccc23)N(C)C(=O)C(CC(C)C)NC(=O)C(CC(C)C)N(C)C(=O)C(CC(C)CCCC)NC(=O)C(CCC(=O)OCCC)OC(=O)C(C)N(C)C1=O` (stereo not drawn) [CP], the “core-glycosylated and protease-protected form of VCAM-1 (translocation across microsomal membranes)” value in data set [1] is “inhibited by increasing concentrations”. Further, the “VCAM-1 protein in transfected cells co-treated with lactacystin” value in data set [2] (cells transiently transfected with VCAM-1 cDNA, co-treatment with lactacystin 5 μM, band identified as full length, non-glycosylated VCAM-1) was “accumulation of a polypeptide moiety of lower molecular weight”. In addition, in data set [2] (transiently transfected HEK293 cells, 48 hours post-transfection, Western blot quantified against β-actin, read-out: concentration inhibiting 50% of VCAM-1 glycoprotein synthesis), the IC50 is less than 5 nM. In addition, the results for the “sensitivity of the chimeric construct to the compound” value in data set [3], in data set [4] and in data set [5] were “partially sensitive”, “resistant” and “full sensitivity”, respectively.
